# Data as given in PubChem BioAssay (NCI).
#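 Exposure lasted 48 hours, with cells grown in 96-well plates and compounds tested at five concentrations. TGI is the concentration that stops growth completely.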
# What was measured:
# Assay in all cases: inhibition of tumour cell growth, NCI panel, 48 h
# M14 melanoma = tested on: M14 melanoma
# IGROV1 ovarian = tested on: IGROV1 ovarian
# SK-MEL-5 melanoma = tested on: SK-MEL-5 melanoma
# MDA-MB-435 = tested on: MDA-MB-435
# HS 578T breast = tested on: HS 578T breast
# OVCAR-8 ovarian = tested on: OVCAR-8 ovarian
# SNB-19 CNS = tested on: SNB-19 CNS
# NCI-H460 lung = tested on: NCI-H460 lung
# SNB-75 CNS = tested on: SNB-75 CNS
# NCI/ADR-RES ovarian = tested on: NCI/ADR-RES ovarian
# HL-60(TB) leukemia = tested on: HL-60(TB) leukemia
# MALME-3M melanoma = tested on: MALME-3M melanoma
# ACHN renal = tested on: ACHN renal
# HCT-15 colon = tested on: HCT-15 colon
# MDA-MB-231 breast = tested on: MDA-MB-231 breast
# SK-MEL-2 melanoma = tested on: SK-MEL-2 melanoma
# SN12C renal = tested on: SN12C renal
# MCF7 breast = tested on: MCF7 breast
# HOP-62 NSCLC = tested on: HOP-62 NSCLC
# COLO 205 colon = tested on: COLO 205 colon
# KM12 colon = tested on: KM12 colon
# NCI-H522 lung = tested on: NCI-H522 lung
# UACC-257 melanoma = tested on: UACC-257 melanoma
# OVCAR-4 ovarian = tested on: OVCAR-4 ovarian
# HCT-116 colon = tested on: HCT-116 colon
# CAKI-1 renal = tested on: CAKI-1 renal
# OVCAR-5 ovarian = tested on: OVCAR-5 ovarian
# MDA-N = tested on: MDA-N
# SK-OV-3 ovarian = tested on: SK-OV-3 ovarian
# OVCAR-3 ovarian = tested on: OVCAR-3 ovarian
# RPMI-8226 leukemia = tested on: RPMI-8226 leukemia
# PC-3 prostate = tested on: PC-3 prostate
# NCI-H23 lung = tested on: NCI-H23 lung
# DU-145 prostate = tested on: DU-145 prostate
# NCI-H226 lung = tested on: NCI-H226 lung
# CCRF-CEM leukemia = tested on: CCRF-CEM leukemia
# RXF 393 renal = tested on: RXF 393 renal
# SK-MEL-28 melanoma = tested on: SK-MEL-28 melanoma
# SW-620 colon = tested on: SW-620 colon
# BT-549 breast = tested on: BT-549 breast
# A549 NSCLC = tested on: A549 NSCLC
# 786-0 renal = tested on: 786-0 renal
# HT29 colon = tested on: HT29 colon
# K-562 leukemia = tested on: K-562 leukemia
# LOX IMVI melanoma = tested on: LOX IMVI melanoma
# SF-295 CNS = tested on: SF-295 CNS
# SR leukemia = tested on: SR leukemia
# T-47D breast = tested on: T-47D breast
# HCC-2998 colon = tested on: HCC-2998 colon
# UACC-62 melanoma = tested on: UACC-62 melanoma
# TK-10 renal = tested on: TK-10 renal
# SF-539 CNS = tested on: SF-539 CNS
# SF-268 CNS = tested on: SF-268 CNS
# MOLT-4 leukemia = tested on: MOLT-4 leukemia
# EKVX NSCLC = tested on: EKVX NSCLC
# U251 CNS = tested on: U251 CNS
# A498 renal = tested on: A498 renal
# UO-31 renal = tested on: UO-31 renal
compound,measurement,setting,value
C[C@@H](c1ccccc1)N1CN(C(=O)OCc2ccccc2)C(CO)C1=O (stereo not given in full),TGI,M14 melanoma,> 100 µM
same,TGI,IGROV1 ovarian,> 100 µM
same,TGI,SK-MEL-5 melanoma,> 100 µM
same,TGI,MDA-MB-435,> 100 µM
same,TGI,HS 578T breast,> 100 µM
same,TGI,OVCAR-8 ovarian,> 100 µM
same,TGI,SNB-19 CNS,> 100 µM
same,TGI,NCI-H460 lung,> 100 µM
same,TGI,SNB-75 CNS,> 100 µM
same,TGI,NCI/ADR-RES ovarian,> 100 µM
same,TGI,HL-60(TB) leukemia,> 100 µM
same,TGI,MALME-3M melanoma,> 100 µM
same,TGI,ACHN renal,> 100 µM
same,TGI,HCT-15 colon,> 100 µM
same,TGI,MDA-MB-231 breast,> 100 µM
same,TGI,SK-MEL-2 melanoma,> 100 µM
same,TGI,SN12C renal,> 100 µM
same,TGI,MCF7 breast,> 100 µM
same,TGI,HOP-62 NSCLC,> 100 µM
same,TGI,COLO 205 colon,> 100 µM
same,TGI,KM12 colon,> 100 µM
same,TGI,NCI-H522 lung,> 100 µM
same,TGI,UACC-257 melanoma,> 100 µM
same,TGI,OVCAR-4 ovarian,> 100 µM
same,TGI,HCT-116 colon,> 100 µM
same,TGI,CAKI-1 renal,> 100 µM
same,TGI,OVCAR-5 ovarian,> 100 µM
same,TGI,MDA-N,> 100 µM
same,TGI,SK-OV-3 ovarian,> 100 µM
same,TGI,OVCAR-3 ovarian,> 100 µM
same,TGI,RPMI-8226 leukemia,> 100 µM
same,TGI,PC-3 prostate,> 100 µM
same,TGI,NCI-H23 lung,> 100 µM
same,TGI,DU-145 prostate,> 100 µM
same,TGI,NCI-H226 lung,> 100 µM
same,TGI,CCRF-CEM leukemia,> 100 µM
same,TGI,RXF 393 renal,> 100 µM
same,TGI,SK-MEL-28 melanoma,> 100 µM
same,TGI,SW-620 colon,> 100 µM
same,TGI,BT-549 breast,> 100 µM
same,TGI,A549 NSCLC,> 100 µM
same,TGI,786-0 renal,> 100 µM
same,TGI,HT29 colon,> 100 µM
same,TGI,K-562 leukemia,> 100 µM
same,TGI,LOX IMVI melanoma,> 100 µM
same,TGI,SF-295 CNS,> 100 µM
same,TGI,SR leukemia,> 100 µM
same,TGI,T-47D breast,> 100 µM
same,TGI,HCC-2998 colon,> 100 µM
same,TGI,UACC-62 melanoma,> 100 µM
same,TGI,TK-10 renal,> 100 µM
same,TGI,SF-539 CNS,> 100 µM
same,TGI,SF-268 CNS,> 100 µM
same,TGI,MOLT-4 leukemia,> 100 µM
same,TGI,EKVX NSCLC,> 100 µM
same,TGI,U251 CNS,> 100 µM
NC(=O)c1nnsc1N/N=C/c1ccc([N+](=O)[O-])cc1,TGI,M14 melanoma,> 100 µM
same,TGI,IGROV1 ovarian,> 100 µM
same,TGI,SK-MEL-5 melanoma,> 100 µM
same,TGI,MDA-MB-435,> 100 µM
same,TGI,HS 578T breast,> 100 µM
same,TGI,OVCAR-8 ovarian,> 100 µM
same,TGI,SNB-19 CNS,> 100 µM
same,TGI,NCI-H460 lung,> 100 µM
same,TGI,SNB-75 CNS,> 100 µM
same,TGI,NCI/ADR-RES ovarian,> 100 µM
same,TGI,HL-60(TB) leukemia,> 100 µM
same,TGI,A498 renal,> 100 µM
same,TGI,MALME-3M melanoma,> 100 µM
same,TGI,ACHN renal,> 100 µM
same,TGI,HCT-15 colon,> 100 µM
same,TGI,MDA-MB-231 breast,> 100 µM
same,TGI,SK-MEL-2 melanoma,> 100 µM
same,TGI,SN12C renal,> 100 µM
same,TGI,MCF7 breast,> 100 µM
same,TGI,HOP-62 NSCLC,> 100 µM
same,TGI,COLO 205 colon,> 100 µM
same,TGI,KM12 colon,> 100 µM
same,TGI,NCI-H522 lung,> 100 µM
same,TGI,UACC-257 melanoma,> 100 µM
same,TGI,OVCAR-4 ovarian,> 100 µM
same,TGI,HCT-116 colon,> 100 µM
same,TGI,CAKI-1 renal,> 100 µM
same,TGI,OVCAR-5 ovarian,> 100 µM
same,TGI,MDA-N,> 100 µM
same,TGI,SK-OV-3 ovarian,> 100 µM
same,TGI,OVCAR-3 ovarian,> 100 µM
same,TGI,RPMI-8226 leukemia,> 100 µM
same,TGI,PC-3 prostate,> 100 µM
same,TGI,NCI-H23 lung,> 100 µM
same,TGI,DU-145 prostate,> 100 µM
same,TGI,NCI-H226 lung,> 100 µM
same,TGI,CCRF-CEM leukemia,> 100 µM
same,TGI,RXF 393 renal,> 100 µM
same,TGI,SK-MEL-28 melanoma,> 100 µM
same,TGI,SW-620 colon,> 100 µM
same,TGI,BT-549 breast,88.6 µM
same,TGI,UO-31 renal,> 100 µM
same,TGI,A549 NSCLC,> 100 µM
same,TGI,786-0 renal,> 100 µM
same,TGI,HT29 colon,> 100 µM
same,TGI,K-562 leukemia,> 100 µM
same,TGI,LOX IMVI melanoma,> 100 µM
same,TGI,SF-295 CNS,> 100 µM
same,TGI,SR leukemia,> 100 µM
same,TGI,T-47D breast,> 100 µM
same,TGI,HCC-2998 colon,> 100 µM
same,TGI,UACC-62 melanoma,> 100 µM
same,TGI,SF-539 CNS,> 100 µM
same,TGI,SF-268 CNS,> 100 µM
same,TGI,MOLT-4 leukemia,> 100 µM
same,TGI,EKVX NSCLC,> 100 µM
same,TGI,U251 CNS,> 100 µM
CCOC(=O)c1nnsc1NC(=O)NCCCCCCn1c(=O)n(CCCCCCNC(=O)Nc2snnc2C(=O)OCC)c(=O)n(CCCCCCNC(=O)Nc2snnc2C(=O)OCC)c1=O,TGI,M14 melanoma,> 100 µM
same,TGI,IGROV1 ovarian,> 100 µM
same,TGI,SK-MEL-5 melanoma,> 100 µM
same,TGI,MDA-MB-435,> 100 µM
same,TGI,HS 578T breast,50 µM
same,TGI,OVCAR-8 ovarian,> 100 µM
same,TGI,SNB-19 CNS,38.2 µM
same,TGI,NCI-H460 lung,44.3 µM
same,TGI,SNB-75 CNS,83 µM
same,TGI,NCI/ADR-RES ovarian,> 100 µM
same,TGI,A498 renal,> 100 µM
same,TGI,MALME-3M melanoma,53.2 µM
same,TGI,ACHN renal,> 100 µM
same,TGI,HCT-15 colon,> 100 µM
same,TGI,MDA-MB-231 breast,41.1 µM
same,TGI,SK-MEL-2 melanoma,> 100 µM
same,TGI,SN12C renal,> 100 µM
same,TGI,MCF7 breast,> 100 µM
same,TGI,HOP-62 NSCLC,69.8 µM
same,TGI,COLO 205 colon,> 100 µM
same,TGI,KM12 colon,> 100 µM
same,TGI,UACC-257 melanoma,> 100 µM
same,TGI,OVCAR-4 ovarian,> 100 µM
same,TGI,HCT-116 colon,> 100 µM
same,TGI,CAKI-1 renal,> 100 µM
same,TGI,OVCAR-5 ovarian,> 100 µM
same,TGI,MDA-N,> 100 µM
same,TGI,SK-OV-3 ovarian,> 100 µM
same,TGI,OVCAR-3 ovarian,> 100 µM
same,TGI,RPMI-8226 leukemia,46.4 µM
same,TGI,PC-3 prostate,> 100 µM
same,TGI,NCI-H23 lung,90.4 µM
same,TGI,DU-145 prostate,> 100 µM
same,TGI,NCI-H226 lung,47.7 µM
same,TGI,CCRF-CEM leukemia,> 100 µM
same,TGI,RXF 393 renal,86.2 µM
same,TGI,SW-620 colon,> 100 µM
same,TGI,BT-549 breast,> 100 µM
same,TGI,UO-31 renal,> 100 µM
same,TGI,A549 NSCLC,> 100 µM
same,TGI,786-0 renal,30.3 µM
same,TGI,HT29 colon,> 100 µM
same,TGI,K-562 leukemia,> 100 µM
same,TGI,SF-295 CNS,> 100 µM
same,TGI,SR leukemia,> 100 µM
same,TGI,T-47D breast,> 100 µM
same,TGI,HCC-2998 colon,> 100 µM
same,TGI,UACC-62 melanoma,35.1 µM
same,TGI,SF-268 CNS,48.4 µM
same,TGI,MOLT-4 leukemia,> 100 µM
same,TGI,EKVX NSCLC,> 100 µM
same,TGI,U251 CNS,36.8 µM
